A melting point compilation (Tetko et al.)

Details: a range is the spread between reports

Row | Structure (SMILES) | melting point
1 | BrCC(Br)c1ccccc1 (stereo not drawn) | 72 to 75 °C
2 | O=C1C(F)=C(F)C(=O)C(F)=C1F | 179 to 184 °C
3 | CC(=O)Nc1ccc2c(c1)Cc1ccccc1-2 | 193 to 194 °C
4 | CCCCCCCCCC=O | -6 to -5 °C
5 | CC(=O)NBr | 104 °C
6 | Sc1nc2ccccc2[nH]1 | 298 °C
7 | O=[N+]([O-])c1cc(C(F)(F)F)cc([N+](=O)[O-])c1Cl | 56 to 57 °C
8 | ClC(Cl)=C(Cl)Cl | -22.3 to -22 °C
9 | O=C(O)CC(S)C(=O)O (stereo not drawn) | 149 to 152 °C
10 | O=C(O)[C@H](O)[C@@H](O)C(=O)O | 169 to 171 °C
11 | Nc1ccc(Cl)cc1C(=O)c1ccccc1 | 96 to 99 °C
12 | Cc1cnc2ccccc2c1 | 15 to 16.5 °C
13 | ICCCCI | 5.8 to 6 °C
14 | CCSSCC | -102 °C
15 | O=C1c2ccccc2C(=O)N1CCCBr | 74 to 75 °C
16 | CC(=O)c1cccs1 | 10 to 10.5 °C
17 | CC(Oc1cccc(Cl)c1)C(=O)O (stereo not drawn) | 113 to 115 °C

Row | Structure (SMILES) | melting point
18 | Nc1c(Br)cc(Br)cc1Br | 120 to 122 °C
19 | N#Cc1c(Cl)cccc1Cl | 143 to 145 °C
20 | N#Cc1cccc(C(=O)O)c1 | 219 to 223 °C
21 | CCCC(=O)O | -8 to -5 °C
22 | CC(C)(C)C(O)C(Oc1ccc(Cl)cc1)n1cncn1 (stereo not drawn) | 134 to 138 °C
23 | C=CCNCC=C | -88.4 to -88 °C
24 | Cc1cccc2c(C)cccc12 | 80 to 82 °C
25 | Brc1cc(Br)cc(Br)c1 | 122 to 124 °C
26 | CCCCCCCCCCCCCCCCCCCCCCC | 47.6 to 49 °C
27 | O=C(O)C(Cl)=C(Cl)Cl | 73 to 76 °C
28 | Cc1cc(-c2ccc(N)c(C)c2)ccc1N | 130 to 132 °C
29 | COC(C(=O)c1ccccc1)c1ccccc1 (stereo not drawn) | 47 to 49.5 °C
30 | COP(=O)(NC(C)=O)SC (stereo not drawn) | 88 to 89 °C
31 | ClCc1ccc(Cl)cc1Cl | -3 to -2.6 °C
32 | N#CCc1ccc(Cl)cc1 | 30 to 31 °C
33 | O=C1C=CC(=O)C=C1 | 114 to 116 °C
34 | CCN(CC)CC | -115 °C

Now from value to compound:

Row | melting point | Structure (SMILES)
35 | -130 °C | CC=C1CCCC1
36 | -8.1 to -8 °C | CC1=CC(=O)CC(C)(C)C1
37 | 67 to 67.8 °C | CC#CC#CC
38 | 70 to 71 °C | CC(=O)OCC(C(OC(C)=O)c1ccccc1)[N+](=O)[O-] (stereo not drawn)
39 | -123 to -119 °C | CC(C)CC(C)C
40 | 37 to 38 °C | O=C(c1ccccc1)c1c(F)c(F)c(F)c(F)c1F
41 | 61 to 62 °C | O=C(O)CSCc1ccccc1
42 | -35 to -33 °C | CC(C)CCC(=O)O
43 | -91 to -90.5 °C | CCc1ccncc1
44 | 108 to 111 °C | c1ccc2c(c1)Cc1ccccc1C2
45 | 15 to 20 °C | COc1ccc(OC)c(C)c1
46 | 88 to 91 °C | c1ccc(-c2ccc(-c3ccccc3)o2)cc1
47 | 1 to 4 °C | COC(=O)OC
48 | -4 to -3 °C | OC(C(F)(F)F)C(F)(F)F
49 | 214 to 217 °C | O=C(O)c1ccc(O)cc1
50 | 59 to 61 °C | C1CCCCCCCCCCC1
51 | -98 to -94.2 °C | FC(F)(F)CC(F)(F)F

Row | melting point | Structure (SMILES)
52 | -131 to -130 °C | CC(C)S
53 | 1 to 2 °C | CCOC(=O)c1ccccn1
54 | 101 to 102 °C | CC(=O)n1ccnc1
55 | 112 °C | Nc1ccc(Br)cc1[N+](=O)[O-]
56 | 11 to 12 °C | Cc1cccc(O)c1
57 | 2 to 2.2 °C | CC(C)(C)c1cccc(C(C)(C)C)n1
58 | 56 to 57 °C | Clc1cc(Cl)cc(I)c1
59 | 10.5 to 11 °C | BrCC(Br)(Br)CBr
60 | 45 to 49.5 °C | O=C(CCC(=O)OCc1ccccc1)OCc1ccccc1
61 | 106 to 107 °C | Oc1ccc(Cl)c(O)c1
62 | 160 °C | Cc1ccnc(N)n1
63 | 263 to 268 °C | O=C1CN(N=Cc2ccc([N+](=O)[O-])o2)C(=O)N1
64 | 19 to 21 °C | CCCCCCCCCCCCCCCCS
65 | 23 to 25 °C | CCCCCCCCCCCC(C)O (stereo not drawn)
66 | 40.9 to 42 °C | Oc1ccccc1
67 | 41 to 44 °C | O=C(OCc1ccccc1)c1ccccc1C(=O)OCc1ccccc1
68 | 127 to 131 °C | COc1ccc(NC(C)=O)cc1
